Molecular target: T1, human B1R receptor (bradykinin 1 receptor) (Homo sapiens, UniProt P46663)
T1 construct: host or cells: CHO K1 cells (hB1R cells)
T1 sequence (P46663 1-353): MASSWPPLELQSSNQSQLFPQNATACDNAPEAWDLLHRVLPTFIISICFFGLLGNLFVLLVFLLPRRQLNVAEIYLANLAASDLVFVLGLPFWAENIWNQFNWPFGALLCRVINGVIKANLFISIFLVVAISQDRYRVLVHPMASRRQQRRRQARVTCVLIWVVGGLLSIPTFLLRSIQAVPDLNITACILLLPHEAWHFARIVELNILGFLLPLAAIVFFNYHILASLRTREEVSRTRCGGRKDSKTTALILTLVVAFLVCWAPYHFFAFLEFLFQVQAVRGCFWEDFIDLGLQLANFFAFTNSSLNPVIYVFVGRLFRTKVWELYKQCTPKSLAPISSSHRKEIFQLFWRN
Test: FLIPR Ca2+ assay (Fluo-4) on CHO K1 cells stably transfected with the human B1R gene; % activation and % inhibition at 10 μM
Type: cell-based
Conditions: CHO-K1, test substance 10 μM; CHO K1 hB1R cells; Ca2+ inflow after 0.5 nM Lys-Des-Arg9-bradykinin; read-out: B1R antagonism, human [10 μM] % inhibition
Method: The agonistic or antagonistic action of substances can be quantified on the bradykinin receptor 1 (B1R) of the species human and rat with ectopically expressing cell lines (CHO K1 cells) and with the aid of a Ca^2+-sensitive dye (Fluo-4) using a fluorescent imaging plate reader (FLIPR). The indication in % activation is based on the Ca^2+ signal after addition of Lys-Des-Arg^9-bradykinin (0.5 nM) or Des-Arg^9-bradykinin (100 nM). Antagonists result in a suppression of the Ca^2+ influx following administration of the agonist. The % inhibition in comparison with the maximum achievable inhibition is indicated.
Functional Investigation on the Bradykinin 1 Receptor (B1R)
The agonistic or antagonistic action of substances can be determined on the bradykinin 1 receptor (B1R) of the human and rat species with the following assay. According to this assay, the Ca^2+ inflow through the channel is quantified with the aid of a Ca^2+-sensitive dyes (Fluo-4 type, Molecular Probes Europe BV, Leiden, The Netherlands) in a fluorescent imaging plate reader (FLIPR, Molecular Devices, Sunnyvale, USA).
Chinese Hamster Ovary cells (CHO K1 cells) which are stably transfected with the human B1R gene (hB1R cells, Euroscreen s.a., Gosselies, Belgium) or the B1R gene of the rat (rB1R cells, Axxam, Milan, Italy) are used. For functional investigations, these cells are plated-out on black 96-well plates with a clear base (BD Biosciences, Heidelberg, Germany) in a density of 20,000-25,000 cells/well. Overnight, the cells are incubated at 37° C. and 5% CO2 in culture medium (hB1R cells: Nutrient Mixture Ham's F12, Gibco Invitrogen GmbH, Karlsruhe, Germany; rB1R cells: D-MEM/F12, Gibco Invitrogen, Karlsruhe, Germany) with 10 vol. % FBS (foetal bovine serum, Gibco Invitrogen GmbH, Karlsruhe, Germany). On the following day, the cells are loaded with 2.13 μM Fluo-4 (Molecular Probes Europe BV, Leiden, The Netherlands) in HBSS buffer (Hank's buffered saline solution, Gibco Invitrogen GmbH, Karlsruhe, Germany) […] (Sigma-Aldrich, Taufkirchen, Germany) and 10 mM HEPES (Sigma-Aldrich, Taufkirchen, Germany) for 60 min at 37° C. The plates are subsequently washed 2× with HBSS buffer, and HBSS buffer which additionally contains 0.1% BSA (bovine serum albumin; Sigma-Aldrich, Taufkirchen, Germany), 5.6 mM glucose and 0.05% gelatine (Merck KGaA, Darmstadt, Germany) is added. After a further incubation of 20 minutes at room temperature, the plates are inserted into the FLIPR for Ca^2+ measurement. The Ca^2+-dependent fluorescence is measured here before and after addition of substances (λex=488 nm, λem=540 nm). The quantification is effected by measurement of the highest fluorescence intensity (FC, fluorescence counts) over time.
The FLIPR protocol comprises 2 additions of substance. Test substances (10 μM) are first pipetted on to the cells and the Ca^2+ inflow is compared with the control (hB1R: Lys-Des-Arg^9-bradykinin 0.5 nM; rB1R: Des-Arg^9-bradykinin 100 nM). The value in % activation based on the Ca^2+ signal after addition of Lys-Des-Arg^9-bradykinin (0.5 nM) or Des-Arg^9-bradykinin (100 nM) is obtained therefrom. After incubation for 10 minutes, 0.5 nM Lys-Des-Arg^9-bradykinin (hB1R) or 100 nM Des-Arg^9-bradykinin (rB1R) are applied and the inflow of Ca^2+ is likewise determined. Antagonists lead to a suppression of the Ca^2+ inflow. % inhibition compared with the maximum inhibition which can be achieved is calculated. The compounds show a good activity on the human and on the rat receptor. The following data were determined by way of example: […]

Structure (SMILES)	inhibition at 10 µM [%]
O=C(COCC1CCCCN1S(=O)(=O)c1ccc(Cl)c(Cl)c1)N1CCC(O)(c2cccnc2)CC1 (stereo not shown) [Example 12, 2-[1-(3,4-dichloro-phenylsulfonyl)-piperidin-2-ylmethoxy]-1-(4′-hydroxy-3′,4′,5′,6′-tetrahydro-2′H-[3,4′]bipyridinyl-1′-yl)-ethanone]	55.1
O=C(COC1CCN(S(=O)(=O)c2ccc(F)cc2)C1)N1CCC(O)(Cc2ccccc2)CC1 (stereo not shown) [Example 15, 1-(4-benzyl-4-hydroxy-piperidin-1-yl)-2-[1-(4-fluoro-phenylsulfonyl)-pyrrolidin-3-yloxy]-ethanone]	40.2
O=C(COCC1CCCN1S(=O)(=O)c1ccc(Cl)c(Cl)c1)N1CCC(O)(c2cccnc2)CC1 (stereo not shown) [Example 19, 2-[1-(3,4-dichloro-phenylsulfonyl)-pyrrolidin-2-ylmethoxy]-1-(4′-hydroxy-3′,4′,5′,6′-tetrahydro-2′H-[3,4′]bipyridinyl-1′-yl)-ethanone]	23.2
O=C(COC1CCN(S(=O)(=O)c2ccccc2)C1)N1CCC(O)(Cc2ccccc2)CC1 (stereo not shown) [Example 22, 2-(1-phenylsulfonyl-pyrrolidin-3-yloxy)-1-(4-benzyl-4-hydroxy-piperidin-1-yl)-ethanone]	20.2
O=C(COCC1CCCCN1S(=O)(=O)c1ccc(Cl)c(Cl)c1)N1CCC(O)(c2ccccn2)CC1 (stereo not shown) [Example 25, 2-[1-(3,4-dichloro-phenylsulfonyl)-piperidin-2-ylmethoxy]-1-(4′-hydroxy-3′,4′,5′,6′-tetrahydro-2′H-[2,4′]bipyridinyl-1′-yl)-ethanone]	10
O=C(COC1CCN(S(=O)(=O)c2ccc(Cl)cc2)C1)N1CCC(O)(Cc2ccccc2)CC1 (stereo not shown) [Example 31, 1-(4-benzyl-4-hydroxy-piperidin-1-yl)-2-[1-(4-chloro-phenylsulfonyl)-pyrrolidin-3-yloxy]-ethanone]	6.81
COc1ccc(S(=O)(=O)N2CCCCC2COCC(=O)N2CCC(O)(Cc3ccccc3)CC2)cc1 (stereo not shown) [Example 35, 1-(4-benzyl-4-hydroxy-piperidin-1-yl)-2-[1-(4-methoxy-phenylsulfonyl)-piperidin-2-ylmethoxy]-ethanone]	5.08
O=C(COCC1CCCN1S(=O)(=O)c1ccc(Cl)c(Cl)c1)N1CCC(O)(c2ccccn2)CC1 (stereo not shown) [Example 36, 2-[1-(3,4-dichloro-phenylsulfonyl)-pyrrolidin-2-ylmethoxy]-1-(4′-hydroxy-3′,4′,5′,6′-tetrahydro-2′H-[2,4′]bipyridinyl-1′-yl)-ethanone]	3.64
O=C(COC1CCN(S(=O)(=O)c2ccccc2)CC1)N1CCC(O)(Cc2ccccc2)CC1 [Example 37, 2-(1-phenylsulfonyl-piperidin-4-yloxy)-1-(4-benzyl-4-hydroxy-piperidin-1-yl)-ethanone]	3.4
COc1cc(C)c(S(=O)(=O)N2CCC(CCOCC(=O)N3CCC(O)(c4ccccn4)CC3)CC2)c(C)c1C [Example 45, 1-(4′-hydroxy-3′,4′,5′,6′-tetrahydro-2′H-[2,4′]bipyridinyl-1′-yl)-2-{2-[1-(4-methoxy-2,3,6-trimethyl-phenylsulfonyl)-piperidin-4-yl]-ethoxy}-ethanone]	-2.48
O=C(COC1CCN(S(=O)(=O)c2ccccc2)CC1)N1CCC(O)(c2cccnc2)CC1 [Example 46, 2-(1-phenylsulfonyl-piperidin-4-yloxy)-1-(4′-hydroxy-3′,4′,5′,6′-tetrahydro-2′H-[3,4′]bipyridinyl-1′-yl)-ethanone]	-3.51

Other lines, results leading:

inhibition at 10 µM [%]	Structure (SMILES)
70.9	COc1cc(C)c(S(=O)(=O)N2CCCC(OCC(=O)N3CCC(O)(Cc4ccccc4)CC3)C2)c(C)c1C (stereo not shown) [Example 11, 1-(4-benzyl-4-hydroxy-piperidin-1-yl)-2-[1-(4-methoxy-2,3,6-trimethyl-phenylsulfonyl)-piperidin-3-yloxy]-ethanone]
50.7	COc1cc(C)c(S(=O)(=O)N(CCOCC(=O)N2CCC(O)(Cc3ccccc3)CC2)Cc2ccccc2)c(C)c1C [Example 13, N-benzyl-N-{2-[2-(4-benzyl-4-hydroxy-piperidin-1-yl)-2-oxo-ethoxy]-ethyl}-4-methoxy-2,3,6-trimethyl-phenylsulfonamide]
43.2	COc1cc(C)c(S(=O)(=O)N2CCC(CCOCC(=O)N3CCC(O)(Cc4ccccc4)CC3)CC2)c(C)c1C [Example 14, 1-(4-benzyl-4-hydroxy-piperidin-1-yl)-2-{2-[1-(4-methoxy-2,3,6-trimethyl-phenylsulfonyl)-piperidin-4-yl]-ethoxy}-ethanone]
31.2	COc1ccc(S(=O)(=O)N(C)CCOCC(=O)N2CCC(O)(Cc3ccccc3)CC2)cc1OC [Example 16, N-{2-[2-(4-benzyl-4-hydroxy-piperidin-1-yl)-2-oxo-ethoxy]-ethyl}-3,4-dimethoxy-N-methyl-phenylsulfonamide]
23.5	COc1cc(C)c(S(=O)(=O)N2CCN(CCOCC(=O)N3CCC(O)(Cc4ccccc4)CC3)CC2)c(C)c1C [Example 18, 1-(4-benzyl-4-hydroxy-piperidin-1-yl)-2-{2-[4-(4-methoxy-2,3,6-trimethyl-phenylsulfonyl)-piperazin-1-yl]-ethoxy}-ethanone]
9.32	O=C(COC1CCCN(S(=O)(=O)c2ccccc2)C1)N1CCC(O)(Cc2ccccc2)CC1 (stereo not shown) [Example 27, 2-(1-phenylsulfonyl-piperidin-3-yloxy)-1-(4-benzyl-4-hydroxy-piperidin-1-yl)-ethanone]
8.5	COc1ccc(S(=O)(=O)N(C)CCOCC(=O)N2CCC(O)(Cc3ccccc3)CC2)cc1 [Example 28, N-{2-[2-(4-benzyl-4-hydroxy-piperidin-1-yl)-2-oxo-ethoxy]-ethyl}-4-methoxy-N-methyl-phenylsulfonamide]
7.66	COc1ccc(S(=O)(=O)N2CCCCC2CCOCC(=O)N2CCC(O)(Cc3ccccc3)CC2)cc1 (stereo not shown) [Example 29, 1-(4-benzyl-4-hydroxy-piperidin-1-yl)-2-{2-[1-(4-methoxy-phenylsulfonyl)-piperidin-2-yl]-ethoxy}-ethanone]
6.63	O=C(COCCN1CCN(S(=O)(=O)c2ccccc2)CC1)N1CCC(O)(Cc2ccccc2)CC1 [Example 32, 2-[2-(4-phenylsulfonyl-piperazin-1-yl)-ethoxy]-1-(4-benzyl-4-hydroxy-piperidin-1-yl)-ethanone]
3.28	CN(CCOCC(=O)N1CCC(O)(Cc2ccccc2)CC1)S(=O)(=O)c1cccc(C(F)(F)F)c1 [Example 38, N-{2-[2-(4-benzyl-4-hydroxy-piperidin-1-yl)-2-oxo-ethoxy]-ethyl}-N-methyl-3-trifluoromethyl-phenylsulfonamide]
2.99	CN(CCOCC(=O)N1CCC(O)(Cc2ccccc2)CC1)S(=O)(=O)c1ccccc1 [Example 39, N-{2-[2-(4-benzyl-4-hydroxy-piperidin-1-yl)-2-oxo-ethoxy]-ethyl}-N-methyl-phenylsulfonamide]

— US8580965B2, “Substituted sulfonamide compounds” (Gruenenthal GmbH, priority 2006, dated 2013)
